Laboratory results as given in patent publication US20260193293A1, “PEPTIDES CAPABLE OF INHIBITING PROTEIN-PROTEIN INTERACTIONS AT GABAB1A SUBUNIT AND USES THEREOF” (UNIVERSITY OF COPENHAGEN, priority 2022, published 2026).
Residues, ends and D or L forms follow the SMILES beside them.

These compounds were tested against Sushi domains (SD1/2) protein (assay: Fluorescence polarization (FP) competition assay with AJAP-1probe, calculated Ki). Settings: Table 4, truncation and elongation scans of APP epitope; read-out: Ki (nM) mean ± SEM.
Assay type: binding
Method: Fluorescence polarization (FP). FP assay was employed to determine the binding affinity of peptides in flat bottom black 384-well plates (Corning Life Science) using a Safire2 plate reader (Tecan). All experiments were conducted in 1×PBS (pH 7.4) containing 1% bovine serum albumin (BSA) at rt. The fluorescence polarization values were measured using excitation/emission wavelengths of 530/580 nm. The instrumental Z-factor was adjusted to obtain the maximum fluorescence intensity and the G-factor was calibrated to give an initial millipolarization value of 20 mP. All FP assays including saturation or competition experiments were performed using 25 nM of TAMRA labeled peptides as probes. For saturation assay, the millipolarization values were measured after mixing of probes with 12 serial 1 to 1 diluted concentrations of Sushi domains (SD1/2) protein. All experiments were performed in triplicate and the data were plotted to the one-site binding model using GraphPad Prism 9 to calculate the Kd of probes. […] The experiments were performed at least in triplicate and the data were fitted to the sigmoidal dose response curve using GraphPad Prism 9 to obtain the IC50 of peptides. The Ki values were calculated according to Nikolovska-Coleska et al^310.
For `CC(=O)N[C@@H](CC(=O)O)C(=O)N[C@@H](CO)C(=O)N[C@@H](C)C(=O)N[C@@H](CC(=O)O)C(=O)N[C@@H](C)C(=O)N[C@@H](CCC(=O)O)C(=O)N[C@@H](CCC(=O)O)C(=O)N[C@@H](CC(=O)O)C(=O)N[C@@H](CC(=O)O)C(=O)N[C@@H](CO)C(=O)N[C@@H](CC(=O)O)C(=O)N[C@H](C(=O)N[C@@H](Cc1c[nH]c2ccccc12)C(=O)N[C@@H](Cc1c[nH]c2ccccc12)C(=O)NCC(=O)NCC(=O)N[C@@H](C)C(=O)N[C@@H](CC(=O)O)C(=O)N[C@H](C(=O)N[C@@H](CC(=O)O)C(=O)N[C@@H](Cc1ccc(O)cc1)C(=O)N[C@@H](C)C(=O)N[C@@H](CC(=O)O)C(N)=O)[C@@H](C)O)C(C)C` (Ac-DSADAEEDDSDVWWGGADTDYAD-NH2), the Ki was 513 ± 17 nM. In the case of `CC(=O)N[C@@H](CC(=O)O)C(=O)N[C@@H](CO)C(=O)N[C@@H](CC(=O)O)C(=O)N[C@H](C(=O)N[C@@H](Cc1c[nH]c2ccccc12)C(=O)N[C@@H](Cc1c[nH]c2ccccc12)C(=O)NCC(=O)NCC(=O)N[C@@H](C)C(=O)N[C@@H](CC(=O)O)C(=O)N[C@H](C(=O)N[C@@H](CC(=O)O)C(=O)N[C@@H](Cc1ccc(O)cc1)C(=O)N[C@@H](C)C(=O)N[C@@H](CC(=O)O)C(N)=O)[C@@H](C)O)C(C)C` (Ac-DSDVWWGGADTDYAD-NH2), the Ki is reported as 1500 ± 66 nM. `CC(=O)N[C@@H](CC(=O)O)C(=O)N[C@H](C(=O)N[C@@H](Cc1c[nH]c2ccccc12)C(=O)N[C@@H](Cc1c[nH]c2ccccc12)C(=O)NCC(=O)NCC(=O)N[C@@H](C)C(=O)N[C@@H](CC(=O)O)C(=O)N[C@H](C(=O)N[C@@H](CC(=O)O)C(=O)N[C@@H](Cc1ccc(O)cc1)C(=O)N[C@@H](C)C(=O)N[C@@H](CC(=O)O)C(N)=O)[C@@H](C)O)C(C)C` (Ac-DVWWGGADTDYAD-NH2) gave a Ki of 6100 ± 307 nM.

Same assay, conditions: Table 7, Ala-, D-amino acids and N-methylation scans of APPWT; read-out: Ki (nM) mean ± SEM
`CC(=O)N[C@@H](CCC(=O)O)C(=O)N[C@@H](C)C(=O)N[C@@H](CC(=O)O)C(=O)N[C@@H](CO)C(=O)N[C@@H](CC(=O)O)C(=O)N[C@H](C(=O)N[C@@H](Cc1c[nH]c2ccccc12)C(=O)N[C@@H](Cc1c[nH]c2ccccc12)C(=O)NCC(=O)NCC(=O)N[C@@H](C)C(=O)N[C@@H](CC(=O)O)C(=O)N[C@H](C(=O)N[C@@H](CC(=O)O)C(N)=O)[C@@H](C)O)C(C)C` (Ac-EADSDVWWGGADTD-NH2) was tested, and the Ki was 1240 ± 65 nM. Compound `CC(=O)N[C@@H](CCC(=O)O)C(=O)N[C@@H](CC(=O)O)C(=O)N[C@@H](C)C(=O)N[C@@H](CO)C(=O)N[C@@H](CC(=O)O)C(=O)N[C@H](C(=O)N[C@@H](Cc1c[nH]c2ccccc12)C(=O)N[C@@H](Cc1c[nH]c2ccccc12)C(=O)NCC(=O)NCC(=O)N[C@@H](C)C(=O)N[C@@H](CC(=O)O)C(=O)N[C@H](C(=O)N[C@@H](CC(=O)O)C(N)=O)[C@@H](C)O)C(C)C` (Ac-EDASDVWWGGADTD-NH2) has a Ki of 1830 ± 54 nM. `CC(=O)N[C@@H](CCC(=O)O)C(=O)N[C@@H](CC(=O)O)C(=O)N[C@@H](CC(=O)O)C(=O)N[C@@H](C)C(=O)N[C@@H](CC(=O)O)C(=O)N[C@H](C(=O)N[C@@H](Cc1c[nH]c2ccccc12)C(=O)N[C@@H](Cc1c[nH]c2ccccc12)C(=O)NCC(=O)NCC(=O)N[C@@H](C)C(=O)N[C@@H](CC(=O)O)C(=O)N[C@H](C(=O)N[C@@H](CC(=O)O)C(N)=O)[C@@H](C)O)C(C)C` (Ac-EDDADVWWGGADTD-NH2) was tested, and the Ki was 660 ± 21 nM. For `CC(=O)N[C@@H](CCC(=O)O)C(=O)N[C@@H](CC(=O)O)C(=O)N[C@@H](CC(=O)O)C(=O)N[C@@H](CO)C(=O)N[C@@H](C)C(=O)N[C@H](C(=O)N[C@@H](Cc1c[nH]c2ccccc12)C(=O)N[C@@H](Cc1c[nH]c2ccccc12)C(=O)NCC(=O)NCC(=O)N[C@@H](C)C(=O)N[C@@H](CC(=O)O)C(=O)N[C@H](C(=O)N[C@@H](CC(=O)O)C(N)=O)[C@@H](C)O)C(C)C` (Ac-EDDSAVWWGGADTD-NH2), the Ki was 3076 ± 22 nM. For `CC(=O)N[C@@H](CCC(=O)O)C(=O)N[C@@H](CC(=O)O)C(=O)N[C@@H](CC(=O)O)C(=O)N[C@@H](CO)C(=O)N[C@@H](CC(=O)O)C(=O)N[C@H](C(=O)N[C@@H](C)C(=O)N[C@@H](Cc1c[nH]c2ccccc12)C(=O)NCC(=O)NCC(=O)N[C@@H](C)C(=O)N[C@@H](CC(=O)O)C(=O)N[C@H](C(=O)N[C@@H](CC(=O)O)C(N)=O)[C@@H](C)O)C(C)C` (Ac-EDDSDVAWGGADTD-NH2), the Ki was 8790 ± 92 nM. `CC(=O)N[C@@H](CCC(=O)O)C(=O)N[C@@H](CC(=O)O)C(=O)N[C@@H](CC(=O)O)C(=O)N[C@@H](CO)C(=O)N[C@@H](CC(=O)O)C(=O)N[C@H](C(=O)N[C@@H](Cc1c[nH]c2ccccc12)C(=O)N[C@@H](Cc1c[nH]c2ccccc12)C(=O)NCC(=O)NCC(=O)N[C@@H](C)C(=O)N[C@@H](C)C(=O)N[C@H](C(=O)N[C@@H](CC(=O)O)C(N)=O)[C@@H](C)O)C(C)C` (Ac-EDDSDVWWGGAATD-NH2) showed a Ki of 653 ± 25 nM. With `CC(=O)N[C@@H](CCC(=O)O)C(=O)N[C@@H](CC(=O)O)C(=O)N[C@@H](CC(=O)O)C(=O)N[C@@H](CO)C(=O)N[C@@H](CC(=O)O)C(=O)N[C@H](C(=O)N[C@@H](Cc1c[nH]c2ccccc12)C(=O)N[C@@H](Cc1c[nH]c2ccccc12)C(=O)NCC(=O)NCC(=O)N[C@@H](C)C(=O)N[C@@H](CC(=O)O)C(=O)N[C@@H](C)C(=O)N[C@@H](CC(=O)O)C(N)=O)C(C)C` (Ac-EDDSDVWWGGADAD-NH2) the Ki was 480 ± 8 nM. In the case of `CC(=O)N[C@@H](CCC(=O)O)C(=O)N[C@@H](CC(=O)O)C(=O)N[C@@H](CC(=O)O)C(=O)N[C@@H](CO)C(=O)N[C@@H](CC(=O)O)C(=O)N[C@H](C(=O)N[C@@H](Cc1c[nH]c2ccccc12)C(=O)N[C@@H](Cc1c[nH]c2ccccc12)C(=O)NCC(=O)NCC(=O)N[C@@H](C)C(=O)N[C@@H](CC(=O)O)C(=O)N[C@H](C(=O)N[C@@H](C)C(N)=O)[C@@H](C)O)C(C)C` (Ac-EDDSDVWWGGADTA-NH2), the Ki is reported as 786 ± 29 nM.

Same assay, conditions: Table 7, cells printed in μM; read-out: Ki (nM) mean ± SEM
Compound `CC(=O)N[C@@H](CCC(=O)O)C(=O)N[C@@H](CC(=O)O)C(=O)N[C@@H](CC(=O)O)C(=O)N[C@@H](CO)C(=O)N[C@@H](CC(=O)O)C(=O)N[C@@H](C)C(=O)N[C@@H](Cc1c[nH]c2ccccc12)C(=O)N[C@@H](Cc1c[nH]c2ccccc12)C(=O)NCC(=O)NCC(=O)N[C@@H](C)C(=O)N[C@@H](CC(=O)O)C(=O)N[C@H](C(=O)N[C@@H](CC(=O)O)C(N)=O)[C@@H](C)O` (Ac-EDDSDAWWGGADTD-NH2) has a Ki greater than 62500 nM. In the case of `CC(=O)N[C@@H](CCC(=O)O)C(=O)N[C@@H](CC(=O)O)C(=O)N[C@@H](CC(=O)O)C(=O)N[C@@H](CO)C(=O)N[C@@H](CC(=O)O)C(=O)N[C@H](C(=O)N[C@@H](Cc1c[nH]c2ccccc12)C(=O)N[C@@H](C)C(=O)NCC(=O)NCC(=O)N[C@@H](C)C(=O)N[C@@H](CC(=O)O)C(=O)N[C@H](C(=O)N[C@@H](CC(=O)O)C(N)=O)[C@@H](C)O)C(C)C` (Ac-EDDSDVWAGGADTD-NH2), the Ki is reported as greater than 62500 nM.

Same assay, conditions: Table 10, deep mutational scanning validation variants of APPWT; read-out: Ki (nM) mean ± SEM
In the case of `CC[C@H](C)[C@H](NC(=O)[C@H](CC(=O)O)NC(=O)[C@H](CO)NC(=O)[C@H](CC(=O)O)NC(=O)[C@H](CC(=O)O)NC(=O)[C@H](CCC(=O)O)NC(C)=O)C(=O)N[C@@H](Cc1c[nH]c2ccccc12)C(=O)N[C@@H](Cc1c[nH]c2ccccc12)C(=O)NCC(=O)NCC(=O)N[C@@H](C)C(=O)N[C@@H](CC(=O)O)C(=O)N[C@H](C(=O)N[C@@H](CC(=O)O)C(N)=O)[C@@H](C)O` (Ac-EDDSDIWWGGADTD-NH2), the Ki is reported as 401 ± 7 nM. `CC(=O)N[C@@H](CCC(=O)O)C(=O)N[C@@H](CC(=O)O)C(=O)N[C@@H](CC(=O)O)C(=O)N[C@@H](CO)C(=O)N[C@@H](CC(=O)O)C(=O)N[C@H](C(=O)N[C@@H](CC(=O)O)C(=O)N[C@@H](Cc1c[nH]c2ccccc12)C(=O)NCC(=O)NCC(=O)N[C@@H](C)C(=O)N[C@@H](CC(=O)O)C(=O)N[C@H](C(=O)N[C@@H](CC(=O)O)C(N)=O)[C@@H](C)O)C(C)C` (Ac-EDDSDVDWGGADTD-NH2) gave a Ki of 4804 ± 43 nM. For `CC[C@H](C)[C@H](NC(=O)[C@@H](NC(=O)[C@H](CC(=O)O)NC(=O)[C@H](CO)NC(=O)[C@H](CC(=O)O)NC(=O)[C@H](CC(=O)O)NC(=O)[C@H](CCC(=O)O)NC(C)=O)C(C)C)C(=O)N[C@@H](Cc1c[nH]c2ccccc12)C(=O)NCC(=O)NCC(=O)N[C@@H](C)C(=O)N[C@@H](CC(=O)O)C(=O)N[C@H](C(=O)N[C@@H](CC(=O)O)C(N)=O)[C@@H](C)O` (Ac-EDDSDVIWGGADTD-NH2), the Ki was 951 ± 20 nM. In the case of `CC(=O)N[C@@H](CCC(=O)O)C(=O)N[C@@H](CC(=O)O)C(=O)N[C@@H](CC(=O)O)C(=O)N[C@@H](CO)C(=O)N[C@@H](CC(=O)O)C(=O)N[C@H](C(=O)N[C@@H](Cc1c[nH]c2ccccc12)C(=O)N[C@@H](Cc1c[nH]c2ccccc12)C(=O)N[C@@H](CC(=O)O)C(=O)NCC(=O)N[C@@H](C)C(=O)N[C@@H](CC(=O)O)C(=O)N[C@H](C(=O)N[C@@H](CC(=O)O)C(N)=O)[C@@H](C)O)C(C)C` (Ac-EDDSDVWWDGADTD-NH2), the Ki is reported as 429 ± 7 nM. With `CC(=O)N[C@@H](CCC(=O)O)C(=O)N[C@@H](CC(=O)O)C(=O)N[C@@H](CC(=O)O)C(=O)N[C@@H](CO)C(=O)N[C@@H](CC(=O)O)C(=O)N[C@H](C(=O)N[C@@H](Cc1c[nH]c2ccccc12)C(=O)N[C@@H](Cc1c[nH]c2ccccc12)C(=O)NCC(=O)NCC(=O)N[C@@H](C)C(=O)N[C@@H](CC(=O)O)C(=O)N[C@@H](Cc1c[nH]cn1)C(=O)N[C@@H](CC(=O)O)C(N)=O)C(C)C` (Ac-EDDSDVWWGGADHD-NH2) the Ki was 739 ± 9 nM.
